Data on one compound can be found in US7378387B2, “Method of suppressing immune response by reducing intracellular content of glutathione in macrophages and monocytes” (Ajinomoto Co., Inc., priority 1997, dated 2008).

In the assay the test system is IL-6. Nature of the assay: IL-6 in macrophage culture supernatant, advanced tumor-bearing mice (Example 4). It is filed as in vivo, CDF1 mice. As to conditions: oral 1 mg/0.5 ml/h for 10 days, COLON 26 mice; control mice 5,200 pg/ml. As for the experimental part:
A stimulator was added to 1×10^6 MΦ, and the incubation was conducted at 37° C. for 2 days in a CO2 incubator. After centrifugation, the culture supernatant was collected.
The amount of IL-6 was determined using IL-6 dependent mouse hybridoma MH60 cells (J. Eur. Immunol., vol. 18, p. 951, 1988). One hundred microliters of the culture supernatant were added to 100 μl of the MH60 cell suspension adjusted to 1×10^5 cells/ml in a 10% FCS-containing RPMI medium, and the mixed solution was incubated at 37° C. for 2 days in a CO2 incubator. Subsequently, 10 μl of MTT (supplied by Sigma Co.) solution adjusted to a concentration of 5 mg/ml in the same medium were added thereto, and the reaction was conducted at 37° C. for 5 hours. After the completion of the reaction, the centrifugation was conducted. The supernatant (160 μl) was removed, and 100 μl of a mixture of hydrochloric acid and propanol were added to the residue. The suspension was conducted using a pipetman to dissolve the cells. Immediately after the dissolution, an absorbance of 570 nm was measured with an immunometer (supplied by Bio-Rad).
The COLON 26 transplantable tumor was implanted subcutaneously in the back portion of CDF1 mice at a density of 5×10^5 cells/mouse. […] Glutathione ethyl ester was orally administered to the mice every day in a dosage of 1 mg/0.5 ml/h. This oral administration was continued for 10 days. […]

For the compound `CCOC(=O)CNC(=O)[C@H](CS)NC(=O)CC[C@H](N)C(=O)O` [GSH-OEt, glutathione monoethyl ester], the “amount of IL-6 in macrophage culture supernatant” value came to 642 pg/mL.
